The target of one assay is HLA-A*0101 (A1) (Homo sapiens, UniProt P04439, A114D/A174V/A182V/D101N/D185E/E176A/E190D/L180R/Q94H/R68K/S129P/T187R/V100A/V91M/W191G). The following applies: cited from earlier work.
Another assay has as its target HLA-A*2402 (Homo sapiens, UniProt P04439, D101N/D140Y/D185E/E176V/E190D/F33S/G103R/G107R/I119L/I121M/I306V/K335N/L105A/L180Q/L300P/N151K/N90K/Q86E/Q94H/R106L/R138H/R89G/T104I/T345S/V100E/W191G/Y123F). The assay can be described thus: independent binding assay of fluorescent reference peptide (Kdref), A24. The following applies: single-site curve fitting, approximate.

The text below walks through data of patent US8538706B2, “Method for affinity scoring of peptide/protein complexes” (Lonza Biologics PLC, priority 2004, dated 2013).

Experimental for HLA-A*2402: 50% inhibitory concentrations (IC50-values) were calculated as averages obtained from at least 3 independent measurements, i.e. from different cell preparations and peptide dilutions. Test peptides >95% pure (Thermo Electron GmbH) were stored at 10 mM in DMSO at −20° C. Cysteine-containing peptides were stored at 10 mM in 1 mM DTT DMSO. […] IC50-values were converted to binding free energies (AG) using the relationships Kd=IC50Kdref/cref (7) and AG=RT ln(Kd) (8) where Kdref and cref are the dissociation constant and formal concentration of the reference peptide, respectively. The Kdref values were derived from an independent binding assay in which the fluorescence intensity was measured as a function of increasing concentrations of reference peptide.

For IYQYMDDLY, in the assay with HLA-A*0101 (A1) (Tyr at P2), the “binding to A1 in words” value is on record as “medium-affinity binder”. The term Kd denotes the equilibrium constant for the complex coming apart. For RYLKC(5Fluorescein)QQLL, the Kd at HLA-A*2402 was ~30 nM. In the case of YSDSVYGDT, at HLA-A*0101 (A1) (strongest A1-binding peptide from HPV-18), the Kd is 188 nM.
